Legend:
Format in all cases: in vivo
[1] = tested on: Echinochloa crus-galli (ECHCG); assay: Herbicidal pre-emergence action (C), 320 g/ha; conditions: ca. 3 weeks
In short: (§1)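 Sandy loam pots, seeds covered with soil → WP/EC compound sprayed on soil surface (aq., +0.5% additive, 600 l/ha) → greenhouse, optimum growth → visual herbicidal effect (%) at ca. 3 wk vs untreated.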

[2] = tested on: Amaranthus retroflexus (AMARE); assay: Herbicidal pre-emergence action (C), 320 g/ha; conditions: ca. 3 weeks
In short: as §1

Lolium rigidum (LOLRI) [3] = assay: Herbicidal pre-emergence action (C), 320 g/ha; conditions: ca. 3 weeks
In short: as §1

Setaria viridis (SETVI) [4] = assay: Herbicidal pre-emergence action (C), 320 g/ha; conditions: ca. 3 weeks
In short: as §1

Stellaria media (STEME) [5] = assay: Herbicidal pre-emergence action (A), 1280 g/ha; conditions: visual grading after ca. 3 weeks vs untreated controls
In short: (§2)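 Pre-emergence soil-surface spray, 600 l/ha water, 0.5% additive, WP or EC formulation. Sandy loam, double sowing per pot, greenhouse under optimum growth. Visual % damage at ~3 wk vs untreated; 100% = plants died off.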

[6] = tested on: Alopecurus myosuroides (ALOMY); assay: Herbicidal pre-emergence action (A), 1280 g/ha; conditions: visual grading after ca. 3 weeks vs untreated controls, 100% = plants have died off, 0% = as control plants
In short: as §2

[7] = tested on: Digitaria sanguinalis (DIGSA); assay: Herbicidal pre-emergence action (A), 1280 g/ha; conditions: visual grading after ca. 3 weeks vs untreated controls, 100% = plants have died off, 0% = as control plants
In short: as §2

[8] = tested on: Echinochloa crus-galli (ECHCG); assay: Herbicidal pre-emergence action (A), 1280 g/ha; conditions: visual grading after ca. 3 weeks vs untreated controls, 100% = plants have died off, 0% = as control plants
In short: as §2

[9] = tested on: Matricaria inodora (MATIN); assay: Herbicidal pre-emergence action (A), 1280 g/ha; conditions: visual grading after ca. 3 weeks vs untreated controls
In short: as §2

[10] = tested on: Amaranthus retroflexus (AMARE); assay: Herbicidal pre-emergence action (A), 1280 g/ha; conditions: visual grading after ca. 3 weeks vs untreated controls
In short: as §2

Lolium rigidum (LOLRI) [11] = assay: Herbicidal pre-emergence action (A), 1280 g/ha; conditions: visual grading after ca. 3 weeks vs untreated controls, 100% = plants have died off, 0% = as control plants
In short: as §2

Poa annua (POAAN) [12] = assay: Herbicidal pre-emergence action (A), 1280 g/ha; conditions: visual grading after ca. 3 weeks vs untreated controls, 100% = plants have died off, 0% = as control plants
In short: as §2

Veronica persica (VERPE) [13] = assay: Herbicidal pre-emergence action (A), 1280 g/ha; conditions: visual grading after ca. 3 weeks vs untreated controls
In short: as §2

[14] = tested on: Kochia scoparia (KCHSC; Bassia scoparia); assay: Herbicidal pre-emergence action (A), 1280 g/ha; conditions: visual grading after ca. 3 weeks vs untreated controls
In short: as §2

Setaria viridis (SETVI) [15] = assay: Herbicidal pre-emergence action (A), 1280 g/ha; conditions: visual grading after ca. 3 weeks vs untreated controls
In short: as §2

Stellaria media (STEME) [16] = assay: Herbicidal post-emergence action (B), 1280 g/ha
In short: (§3)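 Percent activity is a visual score taken about 3 weeks after treatment, relative to untreated plants, where 100% means the plants died and 0% means no difference from controls. Plants were sprayed on green parts at the one-leaf stage with an aqueous suspension or emulsion containing 0.5% additive at 600 L/ha.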

[17] = tested on: Alopecurus myosuroides (ALOMY); assay: Herbicidal post-emergence action (B), 1280 g/ha; conditions: rated visually after about 3 weeks vs untreated controls
In short: as §3

[18] = tested on: Digitaria sanguinalis (DIGSA); assay: Herbicidal post-emergence action (B), 1280 g/ha; conditions: rated visually after about 3 weeks vs untreated controls
In short: as §3

[19] = tested on: Echinochloa crus-galli (ECHCG); assay: Herbicidal post-emergence action (B), 1280 g/ha; conditions: rated visually after about 3 weeks vs untreated controls
In short: as §3

[20] = tested on: Matricaria inodora (MATIN); assay: Herbicidal post-emergence action (B), 1280 g/ha; conditions: rated visually after about 3 weeks vs untreated controls
In short: as §3

[21] = tested on: Amaranthus retroflexus (AMARE); assay: Herbicidal post-emergence action (B), 1280 g/ha; conditions: rated visually after about 3 weeks vs untreated controls
In short: as §3

Lolium rigidum (LOLRI) [22] = assay: Herbicidal post-emergence action (B), 1280 g/ha; conditions: one-leaf stage, rated after about 3 weeks vs untreated controls, 100% activity = the plants have died, 0% = like control plants
In short: as §3

Poa annua (POAAN) [23] = assay: Herbicidal post-emergence action (B), 1280 g/ha; conditions: rated visually after about 3 weeks vs untreated controls
In short: as §3

Veronica persica (VERPE) [24] = assay: Herbicidal post-emergence action (B), 1280 g/ha
In short: as §3

[25] = tested on: Kochia scoparia (KCHSC; Bassia scoparia); assay: Herbicidal post-emergence action (B), 1280 g/ha
In short: as §3

[26] = tested on: Abutilon theophrasti (ABUTH); assay: Herbicidal post-emergence action (B), 1280 g/ha; conditions: rated visually after about 3 weeks vs untreated controls
In short: as §3

Setaria viridis (SETVI) [27] = assay: Herbicidal post-emergence action (B), 1280 g/ha; conditions: rated visually after about 3 weeks vs untreated controls
In short: as §3

[28] = tested on: Abutilon theophrasti (ABUTH); assay: Herbicidal pre-emergence action (A), 1280 g/ha; conditions: visual grading after ca. 3 weeks vs untreated controls, 100% = plants have died off, 0% = as control plants
In short: as §2

[29] = tested on: Alopecurus myosuroides (ALOMY); assay: Herbicidal pre-emergence action (C), 320 g/ha; conditions: ca. 3 weeks
In short: as §1

[30] = tested on: Polygonum convolvulus (POLCO); assay: Herbicidal pre-emergence action (C), 320 g/ha; conditions: ca. 3 weeks
In short: as §1

Veronica persica (VERPE) [31] = assay: Herbicidal pre-emergence action (C), 320 g/ha; conditions: ca. 3 weeks
In short: as §1

[32] = tested on: Alopecurus myosuroides (ALOMY); assay: Herbicidal post-emergence action (D), 320 g/ha; conditions: ca. 3 weeks
In short: (§4)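 Post-emergence greenhouse test. Sandy loam; spray at single-leaf stage (2–3 wk after sowing); WP or EC in water + 0.5% additive, 600 l/ha. Visual rating ~3 wk post-spray, % effect vs untreated (0 = control, 100 = dead).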

[33] = tested on: Amaranthus retroflexus (AMARE); assay: Herbicidal post-emergence action (D), 320 g/ha; conditions: ca. 3 weeks
In short: as §4

Veronica persica (VERPE) [34] = assay: Herbicidal post-emergence action (D), 320 g/ha; conditions: ca. 3 weeks
In short: as §4

[35] = tested on: Digitaria sanguinalis (DIGSA); assay: Herbicidal pre-emergence action (C), 320 g/ha; conditions: ca. 3 weeks
Source text: Seeds of mono- and dicotyledonous weed plants and crop plants were sown, in plastic or organic planting pots, in sandy loam and covered with soil. The compounds according to the invention, formulated in the form of wettable powders (WP) or as emulsifiable concentrates (EC), were applied to the surface of the covering soil as aqueous suspension or emulsion, with the addition of 0.5% of an additive, at an application rate of 600 l of water/ha (converted).
Following treatment, the pots were placed in a greenhouse and kept under optimum growth conditions for the test plants. The visual grading of the damage to the test plants was carried out after ca. 3 weeks in comparison to untreated controls (herbicidal effect in percent (%): 100% effect=plants have died off, 0% effect=as control plants).
Tables C1 to C13 below show the effects of selected compounds of the general formula (I) according to table 1 on various harmful plants and an application rate corresponding to 320 g/ha obtained by the experimental procedure mentioned above.

Compound | herbicidal effect ECHCG [1] | herbicidal effect AMARE [2] | herbicidal effect LOLRI (Lolium rigidum (LOLRI) [3]) | herbicidal effect SETVI (Setaria viridis (SETVI) [4]) | herbicidal effect STEME (Stellaria media (STEME) [5]) | ALOMY, herbicidal effect in percent (%) [6] | DIGSA, herbicidal effect in percent (%) [7] | ECHCG, herbicidal effect in percent (%) [8] | herbicidal effect MATIN [9] | herbicidal effect AMARE [10] | LOLRI, herbicidal effect in percent (%) (Lolium rigidum (LOLRI) [11]) | POAAN, herbicidal effect in percent (%) (Poa annua (POAAN) [12]) | herbicidal effect VERPE (Veronica persica (VERPE) [13]) | herbicidal effect KCHSC [14] | herbicidal effect SETVI (Setaria viridis (SETVI) [15]) | herbicidal effect STEME (Stellaria media (STEME) [16]) | herbicidal activity ECHCG [19] | herbicidal activity AMARE [21] | LOLRI, activity rated visually (%) (Lolium rigidum (LOLRI) [22]) | herbicidal activity POAAN (Poa annua (POAAN) [23]) | also measured
Cc1ccsc1-c1nc2ncsc2cc1Br [Example I-132] | 100% | 90% | 100% | 100% | 90% | 100% | 100% | 100% | 90% | 100% | 100% | 100% | 100% | 100% | 100% | 100% | 100% | 90% | 100% | 90% | herbicidal activity ALOMY [17]: 100%; herbicidal activity DIGSA [18]: 90%; herbicidal activity MATIN [20]: 90%; herbicidal effect VERPE (Veronica persica (VERPE) [24]): 100%; herbicidal effect KCHSC [25]: 90%; herbicidal activity ABUTH [26]: 90%; herbicidal activity SETVI (Setaria viridis (SETVI) [27]): 90%
Cc1ccccc1-c1ccc2scnc2n1 [Example I-105] | 90% |  |  |  | 100% |  | 100% | 100% | 100% | 90% | 100% | 100% |  | 100% | 100% | 100% | 100% | 100% | 100% | 100% | ABUTH, herbicidal effect in percent (%) [28]: 90%; herbicidal activity ABUTH [26]: 90%; herbicidal activity SETVI (Setaria viridis (SETVI) [27]): 90%
Cc1cccc(F)c1-c1nc2ncsc2cc1Cl [Example I-013] | 100% | 90% | 100% | 100% | 100% | 100% | 100% | 100% | 90% | 90% | 100% | 100% | 90% | 100% | 100% | 100% | 100% | 100% | 90% | 90% | herbicidal effect ALOMY [29]: 100%; herbicidal effect POLCO [30]: 80%; herbicidal effect VERPE (Veronica persica (VERPE) [31]): 80%; ABUTH, herbicidal effect in percent (%) [28]: 90%; herbicidal effect ALOMY [32]: 80%; herbicidal effect AMARE [33]: 80%; herbicidal effect VERPE (Veronica persica (VERPE) [34]): 80%; herbicidal activity ALOMY [17]: 100%; herbicidal effect VERPE (Veronica persica (VERPE) [24]): 100%; herbicidal effect KCHSC [25]: 100%
Clc1ccccc1-c1nc2ncsc2cc1Cl [Example I-069] | 100% | 90% | 100% | 100% | 90% | 100% | 100% | 100% | 90% |  | 90% | 100% | 90% | 90% | 100% | 100% | 100% | 90% | 90% | 100% | herbicidal effect DIGSA [35]: 100%; herbicidal effect ALOMY [29]: 100%; herbicidal effect VERPE (Veronica persica (VERPE) [31]): 90%; herbicidal effect ALOMY [32]: 90%; herbicidal effect AMARE [33]: 80%; herbicidal effect VERPE (Veronica persica (VERPE) [34]): 90%; herbicidal activity ALOMY [17]: 100%; herbicidal effect VERPE (Veronica persica (VERPE) [24]): 100%; herbicidal effect KCHSC [25]: 90%; herbicidal activity SETVI (Setaria viridis (SETVI) [27]): 90%

Source: patent publication US20230151025A1, “SUBSTITUTED THIAZOLOPYRIDINES, SALTS THEREOF AND THEIR USE AS HERBICIDALLY ACTIVE SUBSTANCES” (Bayer Aktiengesellschaft, priority 2020, published 2023)
